One may read the LD50 as the dose expected to kill half of the subjects tested. Read a low LD50 as greater toxicity. One may read the mortality as the percentage killed.

In data set [1] the test system is Tribolium confusum. Put plainly: Talcum dust on filter paper, dosage for 100% control within 24 hours. Conditions: 5% talcum dust on filter paper. It is filed as in vivo. Here is the method:
(§1) A dust on a base of talcum and containing 5% active ingredient was applied to filter paper in concentrations of 100, 50, 25, 12.5 6.2 and 3.1 mg of active substance per m^ 2. Onto each of the treated substrates were applied 5 Necrobia rufipes, Rhyzoperta dominica, Anthrenus vorax and Tribolium confusum individuals respectively. Evaluation took place 24 hours later. Test compounds were same as set forth in Example 2.

Data set [2] deals with Rhyzoperta dominica. The description is as above. In kind it is in vivo. Conditions: 5% talcum dust on filter paper. Here is the method: as §1
In data set [3] the test system is Necrobia rufipes. The description is as above. It is filed as in vivo. As to conditions: 5% talcum dust on filter paper. As to the method:
as §1

The subject of data set [4] is Anthrenus vorax. The description is as above. It is filed as in vivo. As to conditions: 5% talcum dust on filter paper. As to the method:
as §1

For data set [5], the system named is cotton pests. Put plainly: Comparison of activity with closest known compounds. In kind it is in vivo. Conditions: on at least the same toxicity level; especially initial effect towards cotton pests.
The subject of data set [6] is Tetranychus urticae. The data set is described as follows: Acaricidal action on Phaseolus vulgaris. In kind it is in vivo. Conditions: larvae, adults and eggs evaluated after 7 days; greenhouse 25° C. As to the method:
The number of living and dead larvae, adults and eggs were evaluated after 7 days under a stereoscopic microscope and the result expressed in percentages. During the "interim", the treated plants were kept in greenhouse compartments at 25° C.

Data set [7] in a line: Acute oral toxicity in rat. Conditions: in vivo, per os.
In data set [8] the test system is third instar larvae of Heliothis virescens. Put plainly: Insecticidal test on sprayed potted cotton and tobacco plants, initial and residual effect. In kind it is in vivo. Here is the method:
Potted cotton and tobacco plants respectively were sprayed with 125 ppm of active ingredient in the form of an aqueous emulsion. After the coating had dried, the treated plants were infested with third instar larvae of Heliothis virescens. The tests were running under greenhouse conditions at 24° C and 60% relative humitidy. Assessments to evaluate the initial effect of the immediate acitivity of the active ingredient were carried out 4, 24 and 48 hours after the infestation of the plants with the pests. Assessments to evaluate the […] of the activity over a prolonged period of the active ingredient were carried out as follows: the coated test plants were infested with the test individuals 2 and 8 days respectively after the application of the active ingredient. Each test was checked after 4, 24 and 48 hours. Test compounds

[9] abbreviates: 125 ppm aqueous emulsion, initial effect, assessment 4 h after infestation, 24° C, 60% relative humidity, read-out: % mortality, initial, 4 hours.
[10] abbreviates: 125 ppm, infested 2 days after application, assessment at 24 h, read-out: % mortality, residual 2d, 24 hours.
Setting [11] is: 125 ppm, infested 2 days after application, assessment at 48 h, read-out: % mortality, residual 2d, 48 hours.
[12] abbreviates: 125 ppm, infested 8 days after application, assessment at 4 h, read-out: % mortality, residual 8d, 4 hours.
Where [13] appears, read: 125 ppm, infested 8 days after application, assessment at 24 h, read-out: % mortality, residual 8d, 24 hours.
Where [14] appears, read: 125 ppm, infested 8 days after application, assessment at 48 h, read-out: % mortality, residual 8d, 48 hours.
The mark [15] stands for this setting: 125 ppm, initial effect, assessment 24 h after infestation, read-out: % mortality, initial, 24 hours.
The mark [16] stands for this setting: 125 ppm, initial effect, assessment 48 h after infestation, read-out: % mortality, initial, 48 hours.
[17] abbreviates: 4 h, read-out: % mortality, residual 2d, 4 hours.

Where two headings read alike, the source gives them in different places.

As for `CCCSP(=O)(OCC)Oc1ccc(Br)cc1Cl` (centres unmarked) [I, O-ethyl-S-N-propyl-O-(2-chloro-4-bromophenyl)-thiophosphate], the “Dosage needed which provides a 100% control within 24 hours” value in data set [1] stood at 50 mg a.i./m^2; in data set [2], 25 mg a.i./m^2; in data set [3] it was 3.1 mg a.i./m^2; in data set [4], 25 mg a.i./m^2. Moreover, in data set [5], the “activities versus the closest known compounds” value is listed as “surprisingly superior activities”. Moreover, the acaricidal activity result in data set [6] is listed as “good activity”. In addition, the median lethal dose (LD50) in data set [7] is 400 to 900 mg/kg. Further, the mortality at 125 ppm stood at 100% in data set [8] (setting [9]); 100% in data set [8] (125 ppm, infested 2 days after application, assessment at 4 h, read-out: % mortality, residual 2d, 4 hours); 100% in data set [8] (setting [10]); 100% in data set [8] (setting [11]); 50% in data set [8] (setting [12]); 100% in data set [8] (setting [13]). The mortality at 125 ppm in data set [8] (setting [14]), in data set [8] (setting [15]) and in data set [8] (setting [16]) was 100% each time.

As to `CCCSP(=O)(OCC)Oc1ccc(Cl)cc1Cl` (centres unmarked) [II, O-ethyl-S-n-propyl-O-(2,4-dichlorophenyl)-thiophosphoric acid ester], the “Dosage needed which provides a 100% control within 24 hours” value in data set [1] was 100 mg a.i./m^2; in data set [2], 50 mg a.i./m^2; in data set [3], 6.2 mg a.i./m^2; in data set [4] it was 50 mg a.i./m^2. Further, the LD50 in data set [7] worked out at 400 mg/kg. The mortality at 125 ppm in data set [8] (setting [9]) was determined as 80%; in data set [8] (setting [10]), 100%; in data set [8] (setting [11]), 100%; in data set [8] (setting [12]), 30%; in data set [8] (setting [13]) it was 50%; in data set [8] (setting [14]) it was 100%. In addition, the results for the mortality at 125 ppm in data set [8] (setting [15]), in data set [8] (setting [16]) and in data set [8] (setting [17]) were 90%, 100% and 50%, respectively.

For `CCCSP(=O)(OCC)Oc1ccc(Br)cc1Br` (centres unmarked) [III, O-ethyl-S-n-propyl-O-(2,4-dibromophenyl)-thiophosphoric acid ester], the “Dosage needed which provides a 100% control within 24 hours” value is on record as more than 100 mg a.i./m^2 in data set [1], 100 mg a.i./m^2 in data set [2], 6.2 mg a.i./m^2 in data set [3] and 100 mg a.i./m^2 in data set [4]. The median lethal dose (LD50) in data set [7] amounted to 300 mg/kg. Also, the mortality at 125 ppm in data set [8] (setting [9]) was found to be 75%; in data set [8] (setting [10]) it was 100%; in data set [8] (setting [11]) it was 100%; in data set [8] (setting [12]) it was 0%; in data set [8] (setting [13]), 5%; in data set [8] (setting [14]), 55%. Further, the values for the mortality at 125 ppm in data set [8] (setting [15]), in data set [8] (setting [16]) and in data set [8] (setting [17]) were 100%, 100% and 30%, respectively.

These data come from US3992533A, “O-ethyl-S-N-propyl-O-(2-chloro-4-bromophenyl)-thiophosphate” (priority 1971, dated 1976).
